From US20200164023A1, “METHODS FOR PREVENTING AND TREATING INTRA-ABDOMINAL CANDIDIASIS” (Cidara Therapeutics, Inc., priority 2017, published 2020)
Numbered stars: 1 amine (or outer) side, 2 acyl side, 3 side chain; on linkers, the order of the positions; unused ones are H or OH. Bridge positions count the residues as written; N and C are the ends. Square brackets hold non-standard residues; d marks the D form. Peptide text beside a SMILES is read from it. * marks the point of attachment. pTerphenylCO(4''-OnC5H11) = CCCCCOc1ccc(-c2ccc(-c3ccc(C(=O)*)cc3)cc2)cc1; Orn(4R-OH,5R-OH) = O=C([C@H](C[C@@H](O)[C@@H](O)N[*:3])N[*:1])[*:2]; hTyr(3S-OH,4S-OH) = N[C@H](C(=O)O)[C@H](O)[C@@H](O)c1ccc(O)cc1; Pro(3S-OH,4S-Me) = C[C@H]1CN[C@H](C(=O)O)[C@H]1O; Hyp = O=C(O)[C@@H]1C[C@@H](O)CN1

Test system: C. glabrata isolates
Experiment: Susceptibility profiles of C. glabrata clinical isolates
Format: cell-based
Description: 168 C. glabrata isolates are collected from blood or other sterile sites in our repository. 11 clinical isolates are selected that display various susceptibility profiles against anidulafungin, caspofungin, and micafungin, and/or harbor mutant or wild-type FKS genes (Table 1). Additionally, 29 isolates are picked that are susceptible to all three echinocandins and harbor wild-type FKS genes. These 40 clinical isolates undergo CD101 susceptibility testing according to the CLSI broth microdilution reference methods. Stock solutions are prepared in DMSO. […] MICs are determined visually after 24-h of incubation. C. krusei ATCC 6258 and C. parapsilosis ATCC 22019 are included for quality controls.

CC[C@H](C)C[C@H](C)CCCCCCCCC(=O)N[C@H]1C[C@@H](O)[C@@H](NCCN)NC(=O)[C@@H]2[C@@H](O)CCN2C(=O)[C@H]([C@H](O)CCN)NC(=O)[C@H]([C@H](O)[C@@H](O)c2ccc(O)cc2)NC(=O)[C@@H]2C[C@@H](O)CN2C(=O)[C@H]([C@@H](C)O)NC1=O [Caspofungin, caspofungin]
susceptibility profile, value (Isolate 1, FKS R653I): 0.125
susceptibility profile, value (Isolate 2, FKS Wild-type): 0.25
susceptibility profile, value (Isolate 3, FKS F659L): 1
susceptibility profile, value (Isolate 4, FKS F659S): 1
susceptibility profile, value (Isolate 5, FKS R636S): 4
susceptibility profile, value (Isolate 6, FKS F659del): 8
susceptibility profile, value (Isolate 7, FKS S663P): 8
susceptibility profile, value (Isolate 8, FKS S663P): 0.5
susceptibility profile, value (Isolate 9, FKS D632Y): 2
susceptibility profile, value (Isolate 10, FKS D632Y): 2
susceptibility profile, value (Isolate 11, FKS F659del): 16

CCCCCOc1ccc(-c2ccc(-c3ccc(C(=O)N[C@H]4C[C@@H](O)[C@@H](O)NC(=O)[C@@H]5[C@@H](O)[C@@H](C)CN5C(=O)[C@H]([C@@H](C)O)NC(=O)[C@H]([C@H](O)[C@@H](O)c5ccc(O)cc5)NC(=O)[C@@H]5C[C@@H](O)CN5C(=O)[C@H]([C@@H](C)O)NC4=O)cc3)cc2)cc1 [Anidulafungin, anidulafungin] ({pTerphenylCO(4''-OnC5H11)}-[Orn(4R-OH,5R-OH)]T[Hyp][hTyr(3S-OH,4S-OH)]T[Pro(3S-OH,4S-Me)]; lactam 1-C)
susceptibility profile, value (Isolate 1, FKS R653I): 0.015
susceptibility profile, value (Isolate 2, FKS Wild-type): 0.015
susceptibility profile, value (Isolate 3, FKS F659L): 0.06
susceptibility profile, value (Isolate 4, FKS F659S): 0.5
susceptibility profile, value (Isolate 5, FKS R636S): 0.5
susceptibility profile, value (Isolate 6, FKS F659del): 2
susceptibility profile, value (Isolate 7, FKS S663P): 2
susceptibility profile, value (Isolate 8, FKS S663P): 0.5
susceptibility profile, value (Isolate 9, FKS D632Y): 0.5
susceptibility profile, value (Isolate 10, FKS D632Y): 1
susceptibility profile, value (Isolate 11, FKS F659del): 2
